Patent US20150267113A1, “Dimercaptothiadiazoles to Prevent Corrosion of Mild Steel by Acid Gases in Oil and Gas Products” (BAKER HUGHES INCORPORATED, priority 2014, published 2015)

Legend:
[1] = cited from earlier work
[2] = kettle test of corrosion inhibition, atmospheric CO2, NACE brine/ISOPAR-M; details: 2.5 or 5 ppm added; 150° F. (66° C.), atmospheric CO2, 90% NACE brine and 10% ISOPAR-M; immediately after injection; blank 140 to 190 mpy
Protocol: FIG. 1 is a graph of the corrosion rate of mild steel at 150° F. (66° C.) in kettle tests at atmospheric CO2 with two different concentrations of 2,5-dimercapto-1,3,4-thiadiazole in a brine fluid.
A formulation of 10% 2,5-dimercapto-1,3,4 thiadiazole (DMTDA) in water with KOH added to adjust the pH to 8.1 was made. The corrosion inhibition of this formulation was tested in a kettle test at 150° F. (66° C.), atmospheric CO2 in a 90% NACE (National Association of Corrosion Engineers) brine and 10% ISOPAR™-M mixture.
The blank corrosion rates range from 140 to 190 mpy (mils per year). Immediately with the injection of the corrosion inhibitor, the corrosion rate lowered to below 40 mpy in the test with the addition of 2.5 or 5 ppm of 2,5-dimercapto-1,3,4-thiadiazole.

With `Sc1nnc(S)s1` [2,5-dimercapto-1,3,4-thiadiazole] as the compound, how does the solubility in water [1] read?
Its solubility in water is 0.01 wt %.

What about the corrosion rate [2] of the same compound?
Its corrosion rate is “below 40 mpy”.
